# From PMC8999625, “Antiviral Effects of ABMA and DABMA against Influenza Virus In Vitro and In Vivo via Regulating the Endolysosomal Pathway and Autophagy” (International Journal of Molecular Sciences, 2022)
# Entries after “also recorded” stand apart in the source; their conditions may differ. Counter-ions that a name gives are not always drawn.
# System: A/HK/2671/2019 (H3N2)
# Format: cell-based, influenza virus
# Conditions: not given
row,Structure (SMILES),antiviral activity against A/HK/2671/2019 (H3N2)
1,"NC12CC3CC(CC(C3)C1)C2 [Amantadine, Amantadine hydrochloride]",did not show antiviral activity; also recorded: no significant protection

# Same assay, conditions: read-out: EC50 ± SD A/HK/2671/2019 (H3N2)
row,Structure (SMILES),EC50 [nM]
1,"COc1ccc(Br)cc1CNC12CC3CC(CC(C3)C1)C2 [ABMA, 1-adamantyl (5-bromo-2-methoxybenzyl) amine]",2830 ± 260
2,"NC12CC3CC(CC(C3)C1)C2 [Amantadine, Amantadine hydrochloride]",> 100000
3,"COc1ccc(Br)cc1CNC12CC3CC(C)(CC(C)(C3)C1)C2 [DABMA, 1,3-dimethyl-1-adamantyl (5-bromo-2-methoxybenzyl) amine]",2950 ± 270
4,"CCOC(=O)C1=C[C@@H](OC(CC)CC)[C@H](NC(C)=O)[C@@H](N)C1 [Oseltamivir, Oseltamivir phosphate]",1790 ± 640
5,"NC(=O)c1ncn([C@@H]2O[C@H](CO)[C@@H](O)[C@H]2O)n1 [Ribavirin, ribavirin]",19800 ± 3260
